Here are results for 1 compound from patent US20190183910A1, “ENHANCING DNA REPAIR AND PREVENTING AGING AND ITS CONSEQUENCES IN REPRODUCTIVE AND OTHER CELLS” (NEW YORK MEDICAL COLLEGE, priority 2016, published 2019).

One data set deals with male germ cells. The conditions noted are these: S1P treatment to mouse testes (Otala et al., 2004); cited from earlier work.
The next data set deals with DMC1. Kind of data set: qRT-PCR DNA DSB repair gene expression in mouse sperm lysates, DMC1. It is filed as cell-based. Here is the method: (§1) Treatment was performed with genotoxic stress (1 mM H2O2), S1P (200 μM), and S1P with genotoxic stress and control in culture for one hour. Also, the use of an ATM inhibitor was utilized (10 μM) (KU-55593, Abcam) (Li et al., 2014). We assessed DNA damage, apoptosis, and chromatin integrity. We also studied the DNA DSB repair gene expression by qRT-PCR in sperm lysates.
(§2) Sperm pellets previously snap-frozen in PBS were thawed. RNA was extracted using the trizol method (Rio et al., 2010). The quality and quantity of the RNA were measured with NanoDrop 2000 from Thermo Scientific. RNA (2 μg) from each sample was taken for reverse transcription with dTVN and N9 primers and SuperScript III reverse transcriptase, all procured from Invitrogen. The resulting cDNA was used to perform real-time qPCR with SYBR Green on an Applied Biosystems 7900HT Real-Time PCR machine was used. To determine the relative expression of various DNA repair genes in mouse sperm, we used the ΔΔCt method, which makes use of the expression of housekeeping genes. GAPDH was used as housekeeping gene. Primers were procured from Integrated DNA technologies (IDT) (Table 3).
For orientation: Quantitative PCR measures a nucleic acid by following its amplification.

The test system of another data set is RAD51. Kind of data set: qRT-PCR DNA DSB repair gene expression in mouse sperm lysates, RAD51. In kind it is cell-based. As for the experimental part:
as §1, §2

Data set [1] has as its system human sperm. The data set is described as follows: Neutral comet assay on human sperm. It is filed as cell-based.
For another data set, the system named is RAD50. The data set is described as follows: qRT-PCR DNA DSB repair gene expression in mouse sperm lysates, RAD50. It is filed as cell-based. The conditions noted are these: S1P treatment, no ATM inhibitor. As for the experimental part:
as §1, §2

The test system of data set [2] is human sperm. The data set is described as follows: Alkaline comet assay on human sperm. It is filed as cell-based. The following applies: n=3, mean±SEM.
Data set [3] deals with mouse sperm. The data set is described as follows: Reactive oxygen species in mouse sperm. The following applies: as a result of S1P treatment. It is filed as cell-based. As for the experimental part:
as §1

The test system of data set [4] is mouse sperm. Kind of data set: Susceptibility of DNA to denaturation by AO staining in mouse sperm. It is filed as cell-based. The conditions noted are these: as a result of S1P treatment. Here is the method: as §1
DNA integrity of mouse sperm were assessed via flow cytometry using acridine orange (AO) staining (Hawley and Hawley, 2004). AO fluoresces green when attached to native DNA, and fluoresces red when attached to fragmented DNA. Basically, after induction of denaturation by heat or acid the denatured DNA (ssDNA) stains metachromatically red with AO while dsDNA stains green. When the sample has ≥50% green fluorescence, the sample is of good quality. Similarly, AO was used to assess sperm chromatin structure by measuring its intensity of fluorescence, which is the ratio of red/(red+green) yields the percentage of DNA fragmentation (also known as DNA fragmentation index, or DFI %).

In a further data set the test system is BRCA1. The data set is described as follows: qRT-PCR DNA DSB repair gene expression in mouse sperm lysates, BRCA1. It is filed as cell-based. As for the experimental part: as §1, §2
Data set [5] relates to mouse sperm. The data set is described as follows: Apoptosis by FLICA (activated caspases) in mouse sperm. In kind it is cell-based. The conditions noted are these: as a result of S1P treatment. As for the experimental part:
as §1
Levels of activated caspases were detected in mouse sperm samples using fluorescein-labelled inhibitors of caspases (FLICA). This cell-permeable and non-cytotoxic caspase inhibitor binds covalently to active caspases. The fluorogenic substrate becomes fluorescent on cleavage by the caspases. The inhibitors were used with the appropriate controls according to the kit instructions provided by the manufacturer (ImmunoChemistry Technologies). A 150-fold stock solution of the inhibitor was prepared in dimethylsulphoxide (DMSO). It was further diluted in phosphate-buffered saline (PBS) to yield a 30-fold working solution. Sperm samples (300 μl) were incubated at 37° C. for 1 hr with 10 μl of the working solution and subsequently washed twice with PBS. After labeling with FLICA, 1% propidium iodide (PI) in PBS was used to assess dead cells. All samples were analyzed directly by flow cytometry to detect caspase activity (Bedner et al., 2000; Darzynkiewicz et al., 2011).

For data set [6] the following is noted: in vivo continuous or intermittent administration to mice (Soleimani et al., 2011; Li et al, 2014); cited from earlier work.
Data set [7] deals with mouse sperm. The data set is described as follows: DNA DSBs by γH2AX expression in S1P-treated mouse sperm. The conditions noted are these: for DNA DSBs as reported by γH2AX expression: culture 1 hour, n=9, mean±SEM. In kind it is cell-based. Here is the method:
as §1
DNA damage assessment of testicular tissue from mice utilized a Ser139 phosphorylation-specific γH2AX antibody (IHC-00059; Bethyl Laboratories) performed with enzymatic diaminobenzidine staining (Vector). Histone H2AX, one of the several variants of the nucleosome core histone H2A, becomes phosphorylated on Ser139 in response to DSBs (γH2AX). Within seconds of DSB formation, γH2AX foci are formed at the site of DNA damage, which can be detected by confocal microscopy or immunohistochemistry to quantify DNA damage. Foci of γH2AX represent DDR in a 1:1 manner, enabling sensitive quantification of potential DSBs (Katsube et al., 2014). Primordial follicles containing a γH2AX-positive oocyte were considered to be DNA-damaged (Rogakou et al., 1998). Sperm were assessed for DNA damage with antibody to γH2AX (613402; BioLegend) and secondary antibody Alexa Fluor 488 (A-11029; Invitrogen), followed by nuclear counterstaining with diamidino-2-phenylindole (DAPI; Fisher Scientific). Immunofluorescence for SD sperm samples was measured by FACScan flow cytometer (Becton-Dickinson) or laser scanning cytometry (Halicka et al., 2008).

Where [8] appears, read: S1P in the presence of genotoxic stress, n=9, mean±SEM.
Setting [9] is: S1P with genotoxic stress, with ATM inhibitor, n=8, mean±SEM.

Where “and” joins values, the source holds several entries; their conditions need not be identical. Equal values may be shown once.

For the compound `CCCCCCCCCCCCC/C=C/[C@@H](O)[C@@H](N)COP(=O)(O)O` [S1P, sphingosine 1 phosphate], in the data set with male germ cells, the “male germ cell loss by radiation-induced injury” value was “decreased”. In addition, the “DMC1 expression (qRT-PCR)” value in the data set with DMC1 (S1P alone, with ATM inhibitor, n=8, mean±SEM) is recorded as 0.027±0.014; in the data set with DMC1 (setting [8]), 0.029±0.04; in the data set with DMC1 (setting [9]) it was 0.0035±0.005. Also, the “RAD51 expression (qRT-PCR)” value in the data set on RAD51 (S1P treatment, no ATM inhibitor) is reported as “no significant difference”; with RAD51 (setting [9]) it was 0.015±0.056. The “DNA damage, neutral comet” value with human sperm [1] (S1P-treated human sperm with ATM inhibitor) and in the data set with human sperm [1] (S1P-treated human sperm without ATM inhibitor) was “no significant difference” in each case. Moreover, the “RAD50 expression (qRT-PCR)” value in the data set with RAD50 is on record as “no significant difference”. The “percent tail DNA, alkaline comet” value with human sperm [2] (S1P with H2O2, with ATM inhibitor) was 26.1±1.19%; in the data set with human sperm [2] (S1P with H2O2, without ATM inhibitor), 13.2±0.51% and 13.2±1.25%. Further, in the data set on mouse sperm [3], the reactive oxygen species result is on record as “no significant difference”. For the same compound, the “susceptibility of DNA to denaturation by AO staining” value in the data set with mouse sperm [4] is “no significant difference”. In addition, the “BRCA1 expression (qRT-PCR)” value with BRCA1 (S1P alone, n=9, mean±SEM) is recorded as 0.471±0.602; in the data set with BRCA1 (setting [8]), 0.755±0.378; with BRCA1 (S1P treatment with ATM inhibitor), “blocked the S1P induced increase”. Moreover, in the data set with mouse sperm [5], the “percentage of apoptosis by FLICA” value is given as “no significant difference”. Also, the side effects entry in data set [6] is “no detectable side effects”. Also, the “DNA DSBs as reported by γH2AX expression” value in the data set with mouse sperm [7] (S1P (200 μM) in the presence of genotoxic stress (1 mM H2O2)) is reported as 8.29±1.45; in the data set on mouse sperm [7] (S1P alone (200 μM)) it was 8.94±1.48. The “DNA integrity (protective effect of S1P)” value in the data set with mouse sperm [7] (in the presence of an ATM inhibitor (10 μM KU-55593), n=9) is given as “ATM inhibition reversed the protective effects”.
